US20070026073A1, “Amorphous efavirenz and the production thereof” (priority 2005, published 2007)

Experiment: dissolution test, USP apparatus II (paddles), efavirenz released in water
Format: physicochemical
Settings: 50 mg efavirenz equivalent in capsule with 15% croscarmellose sodium, 37° C., 100 rpm
Method: FIG. 9 is a plot of percent efavirenz released in water as a function of time for spray dried product using solvent and solvent/non-solvent methods in accordance with Example #8.
Initial release refers to the percent of drug released after 15 minutes in accordance with a standard dissolution test method. Extent of release refers to the percent of drug released after 240 minutes in accordance with the same standard dissolution test method.
Preferably these limits are obtained within about 120 minutes, more particularly within about 60 minutes and still more particularly within about 30 minutes. Dissolution profiles can be determined using USP apparatus II (paddles) (VK 7010®, Varian Inc.), with a bath temperature of 37° C. and a paddle speed of 100 rpm for 240 minutes.
3. The dissolution properties of both amorphous compositions were tested and compared to the crystalline drug form. An amount equivalent to 50 mg efavirenz was analyzed. Powders were hand-filled into size 1 hard gelatin capsules (Shinogi Qualicaps) with an additional 15% croscarmellose sodium (Ac-Di-Sol®, FMC BioPolymers). USP apparatus II (paddles) (VK 7010®, Varian Inc.) was used, with a bath temperature of 37° C. and a paddle speed of 100 rpm for 240 minutes. Both amorphous efavirenz compositions achieved faster rate of release and higher maximum aqueous concentration than the crystalline form (FIG. 9, Table 1). […]

EFV released 15 min (15 min): 7%
EFV released 240 min (240 min): 13%
Compound: O=C1Nc2ccc(Cl)cc2[C@@](C#CC2CC2)(C(F)(F)F)O1 [crystalline efavirenz, (S)-6-chloro-4-(cyclopropylethynyl)-1,4-dihydro-4-(trifluoromethyl)-2H-3,1-benzoxazin-2-one]
